Patent publication US20030054291A1, “Optical data storage medium containing a hemicyanine dye as the light-absorbing compound in the information layer” (priority 2001, published 2003)

Experiment: Solubility in TFP (2,2,3,3-tetrafluoropropanol)
Assay type: physicochemical
Source text: Solubility: >2% in TFP (2,2,3,3-tetrafluoropropanol)

- Solubility: > 2%
SMILES: CN(C)c1ccc(/C=C/C2=[N+](C)c3ccccc3C2(C)C)o1 [Example 1]
